Experimental data reported in patent US11319315B2, “Cyclohexyl acid triazole azoles as LPA antagonists” (BRISTOL-MYERS SQUIBB COMPANY, priority 2017, dated 2022).
Counter-ions that a name gives are not always drawn. Like-named read-outs stand apart in the source and are kept apart here.

Experiments:
[1] = tested on: nerve-injured mice; details: pretreatment; cited from earlier work
[2] = tested on: IPF patients; details: 26-week clinical trial in IPF patients; cited from earlier work
[3] = biological target: T1, human LPA1 (Homo sapiens, UniProt Q92633); assay: LPA1 functional antagonist assay (LPA-induced calcium flux in CHO cells overexpressing human LPA1); type: cell-based; details: read-out: hLPA1 IC50
T1 construct: expressed in transfected cells; host or cells: Chinese hamster ovary (CHO) cells
How it was run: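 Calcium flux was triggered by 10 nM LPA after 20 min room-temperature compound pre-incubation (final 0.08 nM to 5 μM, 0.5% DMSO) in human LPA1-overexpressing CHO cells carrying calcium dye. Buffer: HBSS with Ca/Mg, 20 mM HEPES, 0.1% fatty-acid-free BSA; IC50s from 4-parameter logistic fits.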

[4] = tested on: CD-1 female mice; assay: LPA challenge with plasma histamine evaluation (acute in vivo histamine assay); design: species or system mouse; details: 1 mg/kg dose
Description: LPA Challenge with Plasma Histamine Evaluation.
Compound is dosed orally p.o. 2 hours to CD-1 female mice prior to the LPA challenge. The mice are then dosed via tail vein (IV) with 0.15 mL of LPA in 0.1% BSA/PBS (2 μg/μL). Exactly 2 minutes following the LPA challenge, the mice are euthanized by decapitation and the trunk blood is collected. These samples are collectively centrifuged and individual 75 μL samples are frozen at −20° C. until the time of the histamine assay.
The plasma histamine analysis was run by standard EIA (Enzyme Immunoassay) methods. Plasma samples were thawed and diluted 1:30 in 0.1% BSA in PBS. The EIA protocol for histamine analysis as outlined by the manufacturer was followed (Histamine EIA, Oxford Biomedical Research, EA #31).
The LPA used in the assay is formulated as follows: LPA (l-oleoyl-2-hydroxy-sn-glycero-3-phosphate (sodium salt), 857130P, Avanti Polar Lipids) is prepared in 0.1% BSA/PBS for total concentration of 2 μg/μL. 13 mg of LPA is weighed and 6.5 mL 0.1% BSA added, vortexed and sonicated for 1 hour until a clear solution is achieved.

[5] = tested on: human foetal lung fibroblasts; details: cited from earlier work
[6] = tested on: UUO mice; details: cited from earlier work
[7] = tested on: MCT; details: MCT cells, co-treatment with LPA; cited from earlier work
[8] = tested on: pancreatic cancer cell lines; details: cited from earlier work
[9] = inhibition of calcium flux induced by 10 nM LPA, CHO cells overexpressing human LPA1

T1 sequence (Q92633 whole entry): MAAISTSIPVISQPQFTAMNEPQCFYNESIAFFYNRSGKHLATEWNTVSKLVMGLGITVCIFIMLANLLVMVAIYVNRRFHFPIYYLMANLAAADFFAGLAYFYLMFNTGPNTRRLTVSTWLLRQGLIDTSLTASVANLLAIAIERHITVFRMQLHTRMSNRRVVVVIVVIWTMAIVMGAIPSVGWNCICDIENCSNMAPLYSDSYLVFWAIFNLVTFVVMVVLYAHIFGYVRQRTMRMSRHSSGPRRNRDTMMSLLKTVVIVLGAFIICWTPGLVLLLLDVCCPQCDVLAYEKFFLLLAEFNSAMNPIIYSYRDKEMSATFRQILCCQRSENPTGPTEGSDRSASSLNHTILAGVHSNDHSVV

IC50 [3, 9] [nM] | Compound | also measured
– | C[C@@H](N)[C@H]1CC[C@H](C(=O)Nc2ccncc2)CC1 [Example Y-27632] | allodynia and hyperalgesia [1]: completely abolished
– | Cc1noc(-c2ccc(-c3ccc(C4(C(=O)O)CC4)cc3)cc2)c1NC(=O)O[C@H](C)c1ccccc1 [BMS-986020] | rate of FVC (forced vital capacity) decline [2]: significantly reduce
15 | Cc1nc(-c2nnn(C)c2CNc2noc(CC3CC3)n2)ccc1O[C@H]1CCC[C@H](C(=O)O)C1 [Example 70] | histamine, acute in vivo histamine assay in CD-1 mice [4]: −39%
– | Cc1noc(-c2ccc(CSCCC(=O)O)cc2)c1NC(=O)OC(C)c1ccccc1Cl (stereo not shown) [Ki16425] | chemotaxis of human foetal lung fibroblasts induced by BAL from IPF patients [5]: blocked; renal fibrosis profile in UUO mice [6]: closely resembled the profile of LPA1 (−/−) mice; LPA-induced CTGF expression [7]: almost completely suppressed; LPA-induced and ascites-induced invasion activity ([8]; highly peritoneal metastatic pancreatic cancer cell line): blocked; in vitro migration in response to LPA and peritoneal fluid (ascites) from pancreatic cancer patients ([8]; pancreatic cancer cell lines): effectively blocked
105 | Cc1nc(-c2nnn(C)c2CNc2nc(C3CCC3)no2)ccc1O[C@H]1CCC[C@H](C(=O)O)C1 [Example 44, (1S,3S)-3-((6-(5-(((3-Cyclobutyl-1,2,4-oxadiazol-5-yl)amino)methyl)-1-methyl-1H-1,2,3-triazol-4-yl)-2-methylpyridin-3-yl)oxy)cyclohexane-1-carboxylic acid, 2 TFA salt] | –
37 | Cc1nc(-c2nnn(C)c2Cn2cc(Cc3ccccc3)nn2)ccc1O[C@H]1CCC[C@H](C(=O)O)C1 [Example 81] | –
96 | Cc1nc(-c2nnn(C)c2Cn2nnc(CCC3CC3)n2)ccc1O[C@H]1CCC[C@H](C(=O)O)C1 [Example 296, (1S,3S)-3-{[6-(5-{[5-(2-cyclopropyl-ethyl)-2H-1,2,3,4-tetrazol-2-yl]methyl}-1-methyl-1H-1,2,3-triazol-4-yl)-2-methylpyridin-3-yl]oxy}cyclohexane-1-carboxylic acid] | –
78 | CCCCc1cn(Cc2c(-c3ccc(O[C@H]4CCC[C@H](C(=O)O)C4)c(C#N)n3)nnn2C)nn1 [Example 90] | –
213 | Cc1nc(-c2nnn(C)c2Cn2ncnc2-c2ccccc2)ccc1O[C@H]1CCC[C@H](C(=O)O)C1 [Example 207, (1S,3S)-3-((2-Methyl-6-(1-methyl-5-((5-phenyl-1H-1,2,4-triazol-1-yl)methyl)-1H-1,2,3-triazol-4-yl)pyridin-3-yl)oxy)cyclohexane-1-carboxylic acid] | –
– | CCCCCc1cn(Cc2c(-c3ccc(O[C@H]4CCC[C@H](C(=O)O)C4)c(CC)n3)nnn2C)nn1 [Example 375, (1S,3S)-3-((2-ethyl-6-(1-methyl-5-((4-pentyl-1H-1,2,3-triazol-1-yl)methyl)-1H-1,2,3-triazol-4-yl)pyridin-3-yl)oxy)cyclohexane-1-carboxylic acid] | IC50 [3]: 585 nM
6 | Cc1nc(-c2nnn(C)c2CNc2noc(CCC3CC3)n2)ccc1O[C@H]1CCC[C@H](C(=O)O)C1 [Example 165] | –
54 | Cn1nnc(-c2ccc(O[C@H]3CCC[C@H](C(=O)O)C3)c(C#N)n2)c1Cn1cc(CC2CCCCC2)nn1 [Example 94] | –
– | CCCCn1nnnc1Cc1c(-c2ccc(O[C@H]3CCC[C@H](C(=O)O)C3)c(C)n2)nnn1C [Example 365, (1S,3S)-3-((6-(5-((1-butyl-1H-tetrazol-5-yl)methyl)-1-methyl-1H-1,2,3-triazol-4-yl)-2-methylpyridin-3-yl)oxy)cyclohexane-1-carboxylic acid] | IC50 [3]: 322 nM
102 | Cc1nc(-c2nnn(C)c2Cn2nnc(CC3CCC3)n2)ccc1O[C@H]1CCC[C@H](C(=O)O)C1 [Example 295, (1S,3S)-3-{[6-(5-{[5-(cyclobutyl-methyl)-2H-1,2,3,4-tetrazol-2-yl]methyl}-1-methyl-1H-1,2,3-triazol-4-yl)-2-methylpyridin-3-yl]oxy}cyclohexane-1-carboxylic acid] | –
180 | Cc1nc(-c2nnn(C)c2CNc2nnc(-c3ccccc3)o2)ccc1O[C@H]1CCC[C@H](C(=O)O)C1 [Example 49] | –
– | Cc1nc(-c2nnn(C)c2Cn2nnc(NCc3ccccc3)n2)ccc1O[C@H]1CCC[C@H](C(=O)O)C1 [Example 368, (1S,3S)-3-((6-(5-((5-(benzylamino)-2H-tetrazol-2-yl)methyl)-1-methyl-1H-1,2,3-triazol-4-yl)-2-methyl-pyridin-3-yl)oxy)cyclohexane-1-carboxylic acid] | IC50 [3]: 1020 nM
433 | Cn1nnc(-c2ccc(O[C@H]3CCC[C@H](C(=O)O)C3)cn2)c1Cn1nnnc1C1CCCC1 [Example 258, (1S,3S)-3-((6-(5-((5-cyclopentyl-1H-tetrazol-1-yl)methyl)-1-methyl-1H-1,2,3-triazol-4-yl)pyridin-3-yl)oxy)cyclohexane-1-carboxylic acid] | –
